Test results taken from patent publication US11035008B2, “Biomarkers for cancer” (BERGENBIO ASA, priority 2015, dated 2021).
Entries after “also recorded” stand apart in the source; their conditions may differ.

Columns and labels:
PHGDH [1] = experiment: PHGDH by western blot in Mv4-11 subcutaneous xenograft tumours; assay type: in vivo, mice; details: for PHGDH in tumour lysates (western blot): Mv4-11 sub-q
Procedure: (§1) Western Blot, General Protocol: • For western blot analysis, cells were lysed on ice using NP-40 lysis buffer with protease- and phosphatase inhibitors. Total protein concentration in lysates was measured using a BCA protein assay kit following the manufacturers instructions. 10% NuPAGE® Bis-Tris precast gels were loaded with 30-50 μg of protein in each well diluted in sample buffer and antioxidant. A 1:1 mix of MagicMark™ XP Western Protein Standard (Invitrogen) and SeeBlue® Plus 2 Pre-Stained Standard was used as protein standard. Gels were run at 50V for 20 min, then at 100V for 1 h 30 min. Blotting was done on ice for 1 h 30 min at 100V onto PVDF (pre-activated with MeOH) or nitrocellulose membranes. Membranes were washed in TBS-0.1% Tween-20 (TBS-T), and blocked in TBS-T 5% BSA for at least 1 h at RT. Primary ABs were added at 1:1000 in TBS-T 5% BSA (rabbit-anti-actin AB was added at 1:2000) in TBS-T 5% BSA, and membranes were incubated over night at 4° C. Membranes were then washed 3× in TBS-T, and incubated in HRP-conjugated secondary ABs at 1:5000 dilution in TBS-T 5% milk for 45 min at RT. Membranes were developed for 1 min using ECL-reagents and imaged with chemiluminescence using a Molecular Imager ChemiDoc™ XRS (BioRad). • All incubation- and washing steps were done on a roller.
To validate the reduction of PHGDH in in vivo samples found by microarray, the PHGDH expression in tumour material from in vivo samples was investigated by western blot. […] Therefore, it was investigated at what time point PHGDH is reduced after treatment with a single high dose of BGB324 100 mg/kg.
Tumours where the mice had been treated with a single lower dose of BGB324, 50 mg/kg, were also examined (tumour material was harvested at different time points, from 4-72 hours).

pAxl(Y779) = pAxl(Y779) by flow cytometry in MOLM13 cells (Example 2); assay type: cell-based, human
Procedure: (§2) Staining of Cells for Flow Cytometry, General Protocol: • Live cells were centrifuged at 300 G for 5 minutes, washed once with PBS and centrifuged again. Cells were then fixed in 4% PFA in PBS for 10 minutes at 37° C., and resuspended in PBS. Unless processed immediately, samples were at this point stored in PBS at 4° C. (up to three weeks) or at −80° C. (for long-term storage). If intracellular epitopes were stained, cells were permebealized in 90% MeOH for 30 minutes on ice. Unless processed immediately, samples were also be stored in 90% MeOH at −20° C. for up to two months. • Further staining procedure (permebealized or non-permebealized cells): • Cells were washed 1× in PBS and blocked in blocking buffer; either PBS+0.5% BSA or PBS+1:1000 Octagam (5 mg/ml) for 15 minutes at room temperature. Thereafter, cells were incubated with primary AB at the indicated dilutions in incubation buffer (IB, PBS+0.5% BSA) for 1 hour at room temperature. Cells were then washed 3× with IB and incubated with secondary AB (conjugated to a fluorescent flurophore) at 1:1000 dilution in IB for 30 minutes at room temperature. Finally, cells were washed 3× in IB and resuspended in PBS. Cells were analyzed immediately, or stored for up to 24 hours at 4° C. before analysis. • Analysis of cells was done on a BD LSR Fortessa or a BD C6 Accuri flow cytometer, and further processing was done using FlowJo v.7.6. • All incubation steps (but not storage) were done on a spinning wheel or gentle shaker.
MOLM13 cells were cultured in starvation medium (RPMI, 0.1% FBS) over night and treated with BGB324 at 3 μM for a total of 40 minutes. […] Cells were co-stained with pAxl(Y779) and tAxl (1H12) antibodies. […] When gating for Axl-expressing cells, we saw that the reduction of pAxl signal was only seen in Axl-positive cells, showing that the pAxl antibody appears to be Axl-specific (see FIG. 3).
pAxl was further assessed pAxl by, in the same experimental conditions, examining for phosphorylation of Akt (see above, and FIG. 2), comparing starvation with non-starved cells, and using MOLM13 wt, shAxl and shLuc (cells were co-stained with antibodies for both pAkt and pAxl). MOLM13shAxl were used as a negative control, to separate between background binding of the antibodies and the “real” pAxl-signal. In cells that were not starved, only a slight inhibition of pAxl after treatment was found (around 20% at 3 μM BGB324 dose).

PHGDH [2] = experiment: Microarray analysis of xenograft material, PHGDH transcript; assay type: in vivo, mice
Text: PHGDH was included in the biomarker panel following microarray analysis of Mv4-11 and MOLM13 xenograft material after BGB324-treatment.

totPHGDH = experiment: Total PHGDH in AML cell panel, long-term treatment, flow cytometry; assay type: cell-based, human
Procedure: as §2
The diversity of AML cells and their responses was investigated using a panel of AML cell lines and assessing their responses after BGB324-treatment.
Long-term treatment was done in complete medium, without starvation. The responders were treated with 0.05, 0.1 or 0.3 μM BGB324, whereas the non-responders were treated with only a single dose of 2.5 μM BGB324. The cells were fixed after 24, 48 or 72 hours, and the samples were stored in 90% MeOH at −20° C. until all samples were harvested, and stained for flow at the same time.

PHGDH [3] = experiment: PHGDH by western blot in MOLM13 cells treated in vitro; assay type: cell-based, human
Procedure: as §1

pPLCγ1 = pPLCγ1 in CD33-positive cells, MOLM13 systemic xenograft model, flow cytometry; assay type: in vivo, mice; details: 50 mg/kg for 4 days
Procedure: Material from an in vivo MOLM13 systemic model was also evaluated by flow cytometry. Expression of the previously evaluated biomarkers was examined in cells isolated from bone marrows and spleens of animals with systemic AML disease (MOLM13, inoculated for 7 days prior to treatment) treated with BGB324 at 50 mg/kg for 4 days. The spleens analysed were from the same study that was analysed by microarray, as mentioned above. The bone marrows were from an identical study that was done at a later time point to get more material for flow analyses.
Cells isolated from spleens and bone marrows were assessed for phosphorylation of Erk, PLCγ1 and Akt, and expression of PHGDH and SLFN11. The samples were also co-stained with CD33, and biomarker expression was only evaluated in CD33-positive cells.

## Nc1nc(Nc2ccc3c(c2)CC[C@@H](N2CCCC2)CC3)nn1-c1cc2c(nn1)-c1ccccc1CCC2 [BGB324, 1-(6,7-dihydro-5H-benzo[6,7]cyclohepta[1,2-c]pyridazin-3-yl)-N3-((7-(S)-pyrrolidin-1-yl)-6,7,8,9-tetrahydro-5H-benzo[7]annulene-2-yl)-1H-1,2,4-triazole-3,5-diamine]
PHGDH [1]; Mv4-11, single dose 50 mg/kg, harvested 4-72 hours
  PHGDH in tumours (western blot): stable reduction of PHGDH was observed from 16 hours and onwards
PHGDH [1]; Mv4-11, single dose 100 mg/kg, 6 hours after treatment
  PHGDH in tumours (western blot): not 6 hours after treatment
PHGDH [1]; Mv4-11, single dose 100 mg/kg, 8 hours after treatment
  PHGDH in tumours (western blot): reduction of PHGDH observed in three parallel tumours
PHGDH [1]; 25 mg/kg BID, 50 mg/kg BID or 50 mg/kg QD, 15 days
  PHGDH in tumour lysates (western blot): reduction of PHGDH was observed in most of the tumours
PHGDH [1]; 100 mg/kg single dose, tumours harvested 6 h after dosing
  PHGDH in tumour lysates (western blot): only in one of two tumours
pAxl(Y779); Homo sapiens, MOLM-13, MOLM13 not starved (wt, shLuc, shAxl same)
  inhibition at 3 µM: ~20%
pAxl(Y779); MOLM13 shAxl, pre-starved, 3 μM
  inhibition of pAxl: approximately 20%
pAxl(Y779); MOLM13 starved, 3 μM, 40 minutes
  pAxl(Y779): slight decrease in pAxl; also recorded: modest reduction of pAxl
pAxl(Y779); MOLM13 wt and shLuc, pre-starved, 3 μM
  total reduction of pAxl: 40%
PHGDH [2]; MOLM13 systemic xenograft model, spleen and bone marrow
  PHGDH transcript (microarray): significantly downregulated; also recorded: significantly reduced
PHGDH [2]; Mv4-11 subcutaneous xenograft, 14 days of treatment
  PHGDH transcript (microarray): one of the most significantly downregulated transcripts; also recorded: significantly downregulated
PHGDH [2]; both Mv4-11 subcutaneous and MOLM13 systemic xenograft models
  PHGDH transcript alteration after treatment (microarray): more than 1.5 fold
totPHGDH; Kasumi, 2.5 μM, significant at 24 hours
  PHGDH expression: increase in PHGDH expression
totPHGDH; MOLM13, 24, 48 and 72 hours
  total protein expression of PHGDH: no significant changes
totPHGDH; Mv4-11, 0.3 uM, 24 and 72 hours
  total protein expression of PHGDH: significant reduction of PHGDH
totPHGDH; OCI-AML5, 2.5 μM, significant in all time points
  PHGDH expression: increase in PHGDH expression
PHGDH [3]; 2 uM, time-course of 3-7 hours
  PHGDH by western blot: did not see reduction of PHGDH
PHGDH [3]; 0.3 and 0.6 uM, three days
  PHGDH by western blot: did not see reduction of PHGDH
pPLCγ1; bone marrows
  pPLCγ1: significant reduction
pPLCγ1; spleens
  pPLCγ1: significant reduction
